Assay results published in patent US20240366594A1, “Small Molecule Inhibitors of Formation of Neutrophil-Derived Extracellular Traps (NETosis) and Uses Thereof” (The Brigham and Women's Hospital, Inc., priority 2021, published 2024).

System: neutrophils that lack HDAC6
Experiment: NET induction in PMA-stimulated neutrophils from HDAC6KO mice
Type: cell-based, mouse
Conditions: ricolinostat 10, 2, 0.4, 0.08 μM, then PMA; FIG. 5G
Experimental: FIGS. 5A-J. Class I/II HDACs drive NET formation. • A) Quantification of extracellular DNA released by neutrophils treated, or not, with 1 μM GSK484 for 1 h and then stimulated with 1 μM PMA for 4 hours. Unstimulated, neutrophils not treated with drugs were used as a control. • B) Freshly purified human neutrophils were treated with the indicated HDAC inhibitors at different doses (0.08, 0.4, 2 and 10 μM) for 1 hour. Extracellular DNA release was assessed in the supernatant 3 hours after PMA stimulation. The dotted line represents the amount of DNA released from neutrophils treated with PMA alone. […] NETosis induction was measured as level of anti-CitH3 fluorescent signal. […] NET induction was measured as in (C). […] NETosis induction was measured as level of anti-CitH3 fluorescent signal. […] NET induction was measured as in (F). • H, I) Freshly isolated neutrophils from two different donors were treated with different doses of ricolinostat, citarinostat (10, 2, 0.4, 0.08 μM) or GSK484 (10, 5, 2 μM) for 1 h and then stimulated with 1 μM PMA. NET induction was measured as level of anti-CitH3 fluorescent signal (H) and by microscopy as number of cells positive for CitH3 signal per field of view (FOV) (I). […] NET induction was measured as level of anti-CitH3 fluorescent signal. […] Statistics were calculated using One-way ANOVA (A, E, I) and Two-way ANOVA (B, F, G, H, L). […]

## O=C(CCCCCCNC(=O)c1cnc(N(c2ccccc2)c2ccccc2)nc1)NO [ricolinostat]
  NET induction in HDAC6-lacking neutrophils: remained sensitive
